For the assay, the target named is recombinant eIF4E (Homo sapiens (Human), UniProt P06730). Nature of the assay: Fluorescence polarization competition assay for eIF4E binding potency. On the procedure:
Compounds were screened for eIF4E binding potency using a fluorescence polarization competition assay. All binding reactions were performed in fluorescence polarization buffer (FPB) containing 20 mM Tris pH 7.5, 100 mM NaCl, 1 mM DTT, and 0.02% Tween-20. Final binding reactions contained 75 nM recombinant eIF4E (Beryllium, custom order), 20 nM EDA-m^7GDP-ATTO-550 (Jena Bioscience, NU-827-550) and varying concentrations of the inhibitory compound of interest. Final DMSO concentration in each reaction was 1%.
eIF4E protein was pre-incubated with EDA-m^7GDP-ATTO-550 in FPB at 2× concentrations for 5 minutes prior to the addition of compounds. Compounds (100×) were prepared using 3-fold serial dilutions in 100% DMSO, and subsequently diluted 1:50 in FPB to produce 2× stocks. 50 μl of 2× eIF4E/EDA-m^7GDP-ATTO-550 were transferred to the wells of a 96-well half-area black flat bottom polystyrene plate. 50 μl of 2× test compound were added, and binding reactions were allowed to equilibrate for 30 minutes at room temperature while protected from light. The fluorescent polarization signal was detected using a Victor 2 multi-label counter (Perkin Elmer) and the concentration necessary to achieve inhibition of eIF4E/EDA-m^7GDP-ATTO-550 binding by 50% (IC50) was calculated using data from an 8-point compound dilution series.
In Table 4A, IC50 values of less than 0.05 μM are labelled as “+++”, from 1 to 0.05 μM are labelled as “++”, and greater than 1 μM are labelled as “+”. ND=not determined.

[1] abbreviates: inhibition of eIF4E/EDA-m7GDP-ATTO-550 binding, calculated IC50 values, Table 4B, read-out: IC50.
The mark [2] stands for this setting: fluorescence polarization competition, 75 nM recombinant eIF4E, 20 nM EDA-m7GDP-ATTO-550, IC50 class, read-out: elF4E FP.
[3] abbreviates: inhibition of eIF4E/EDA-m7GDP-ATTO-550 binding by 50%, Table 4B calculated values, read-out: IC50.

Where two headings read alike, the source gives them in different places.

Chain of recombinant eIF4E (P06730 whole entry): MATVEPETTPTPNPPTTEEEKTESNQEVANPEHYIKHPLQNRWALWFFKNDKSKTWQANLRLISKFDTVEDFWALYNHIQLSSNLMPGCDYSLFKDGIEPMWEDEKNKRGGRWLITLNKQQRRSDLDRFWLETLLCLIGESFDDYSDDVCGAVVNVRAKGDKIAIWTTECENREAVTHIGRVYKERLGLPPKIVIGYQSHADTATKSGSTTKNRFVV

For `Cc1nc2cnc(N3CCN(C(C)C(F)(F)F)CC3)c(C#N)c2c(=O)n1CCOc1ccc(Cl)cc1-c1ccnc2c(C(=O)O)csc12` (stereo not drawn) [compound 1315], the IC50 under setting [1] was 13.1 nM.
In the case of `Cc1cc(-c2cc(Cl)ccc2OCCn2c(C)nc3cc(C(F)(F)F)cc(C#N)c3c2=O)c2scc(C(=O)NS(C)(=O)=O)c2n1` [compound 565], the IC50 is under 50 nM under setting [2] and 29.7 nM under setting [3].
In the case of `Cc1nc2cnc(N3CCN(C4(C(F)F)CC4)CC3)c(C#N)c2c(=O)n1CC#Cc1ccc(Cl)cc1-c1ccnc2c(C(=O)O)csc12` [compound 1366], the IC50 under setting [1] is 14.3 nM.
Take `Cn1nc(C(=O)O)cc1-c1cc(Cl)ccc1OCCn1cnc2cnc(C#N)cc2c1=O` [compound 84]: the IC50 by setting is: under setting [2], over 1000 nM; under setting [3], 1250 nM.
In the case of `Cc1nc2cnc(N(C)C3CCOCC3)c(C#N)c2c(=O)n1CC#Cc1ccc(Cl)cc1-c1ccnc2c(C(=O)O)csc12` [compound 1528], the IC50 under setting [1] was 6.31 nM.
Consider `CCc1cc(-c2cc(F)c(F)cc2OCCn2c(C)nc3cc(C(F)(F)F)c(N4CCN(C)CC4)c(C#N)c3c2=O)c2scc(C(=O)O)c2n1` [compound 1215], for which the IC50 reads like this: under setting [2], under 50 nM; under setting [1], 25.7 nM.
On to `Cc1nc2cncc(C#N)c2c(=O)n1CCOc1ccc(Cl)cc1-c1ccnc2c(C(=O)O)csc12` [compound 140], for which the IC50 runs as follows: under setting [2], 50 to 1000 nM; under setting [3], 50 nM.
Take `Cc1nc2cnc(N(C)[C@@H]3C[C@@H]4CN(CC(F)F)C[C@@H]4C3)c(C#N)c2c(=O)n1CC#Cc1ccc(Cl)cc1-c1ccnc2c(C(=O)O)csc12` [compound 1531]: the IC50 under setting [1] was 13.4 nM.
Take `Cc1nc2cncc(Br)c2c(=O)n1CCOc1ccc(Cl)cc1-c1cccc(C(=O)O)c1` [compound 1999]: under setting [1], the IC50 was 482 nM.
With `Cc1nc2cnc(N(C)[C@@H]3[C@@H]4CN(CC(F)F)C[C@@H]43)c(C#N)c2c(=O)n1CC#Cc1ccc(Cl)cc1-c1ccnc2c(C(=O)O)csc12` [compound 1407], the IC50 under setting [1] is 24.7 nM.
On to `Cc1nc2cnc(N3CCN(C)C(C)(C)C3)c(C#N)c2c(=O)n1CCOc1ccc(Cl)cc1-c1ccnc2c(C(=O)O)csc12` [compound 815], for which the IC50 under setting [2] was under 50 nM and the IC50 under setting [3] is 3.31 nM.
For `Cc1cc(-c2cc(Cl)ccc2OCCn2c(C)nc3cc(C(F)(F)F)c(CCCN(C)C)c(C#N)c3c2=O)c2scc(C(=O)O)c2n1` [compound 709], the IC50 reads like this: under setting [2], 50 to 1000 nM; under setting [3], 56.7 nM.
For the molecule `Cc1nc2cnc(N3CCN(C4(CCC(F)(F)F)CC4)CC3)c(C#N)c2c(=O)n1CCOc1ccc(Cl)cc1-c1ccnc2c(C(=O)O)csc12` [compound 1401], under setting [1], the IC50 is 12.7 nM.
For the molecule `COC1CN(c2ncc3nc(C)n(CCOc4ccc(Cl)cc4-c4cc(C)nc5c(C(=O)O)csc45)c(=O)c3c2C#N)C1` [compound 1010], the IC50 runs as follows: under setting [2], under 50 nM; under setting [3], 5.29 nM.
For `Cc1nc2ccc(S(=O)(=O)NCc3ccccc3)c(C#N)c2c(=O)n1CCOc1ccc(Cl)cc1-c1ccnc2c(C(=O)O)csc12` [compound 252] the same measures were under 50 nM and 42 nM.
With `Cc1sc2c(-c3cc(Cl)ccc3OCCn3c(C)nc4cc(C(F)(F)F)c(N5CCN(C)CC5)c(C#N)c4c3=O)ccnc2c1C(=O)O` [compound 1093], the IC50 reads like this: under setting [2], 50 to 1000 nM; under setting [3], 58.6 nM.
For `Cc1nc2cc(C(F)(F)F)cc(C#N)c2c(=O)n1CCOc1ccc(Cl)cc1N1CCC(C(=O)O)CC1` [compound 326] the same measures were over 1000 nM and 1440 nM.
`Cc1ccc(-c2cc(Cl)ccc2OCCn2c(C)nc3cc(C(F)(F)F)c(CN4CCN(C)CC4)c(C#N)c3c2=O)c2scc(C(=O)O)c12` [compound 719]: the IC50 is, setting by setting: under setting [2], under 50 nM; under setting [3], 28.5 nM.
In the case of `Cc1nc2cnc(N(C)C3CCN(CC(F)(F)C(F)F)CC3)c(C#N)c2c(=O)n1CC#Cc1ccc(Cl)cc1-c1ccnc2c(C(=O)NS(=O)(=O)c3ccccn3)csc12` [compound 1706], the IC50 under setting [1] was 12.1 nM.
Consider `N#Cc1cc2c(=O)n(CCOc3ccc(Cl)cc3-c3ccc(OC(F)(F)F)c(C(=O)O)c3)cnc2cn1` [compound 113], for which the IC50 is, setting by setting: under setting [2], 50 to 1000 nM; under setting [3], 804 nM.
Take `Cc1nc2cnc(N3CCN(C)C(COC(F)(F)F)C3)c(C#N)c2c(=O)n1CC#Cc1ccc(Cl)cc1-c1ccnc2c(C(=O)O)csc12` (stereo not drawn) [compound 1460]: under setting [1], the IC50 was 7.99 nM.
Consider `CO[C@H]1C[C@@H](c2ncc3nc(C)n(CCOc4ccc(Cl)cc4-c4cc(C)nc5c(C(=O)O)csc45)c(=O)c3c2C#N)C1` [compound 1152], for which the IC50 under setting [2] is under 50 nM and the IC50 under setting [3] is 3.8 nM.
For the molecule `Cc1cc(-c2cc(Cl)ccc2OCCn2c(C)nc3cc(C(F)(F)F)c(N4CCN(C)CC4)c(C#N)c3c2=O)c2scc(C(=O)OC(C)OC(=O)OC3CCCCC3)c2n1` (stereo not drawn) [compound 1082], the IC50 under setting [2] was 50 to 1000 nM and the IC50 under setting [3] is 903 nM.
The matching figures for `Cc1nc2cnc(N3CCN(C4CC4)CC3(C)C)c(C#N)c2c(=O)n1CCOc1ccc(Cl)cc1-c1ccnc2c(C(=O)O)csc12` [compound 1101]: under 50 nM and 7.2 nM.
For `Cc1nc2cnccc2c(=O)n1CCOc1ccc(Cl)cc1-c1cccc(P(=O)(O)O)c1` [150FC], under setting [3], the IC50 was 124 nM.
As to `Cc1nc2cc(C(F)(F)F)c(-c3ccncc3)c(C#N)c2c(=O)n1CCOc1ccc(Cl)cc1-c1cccc(C(=O)O)c1` [compound 386], the IC50 is under 50 nM under setting [2] and 25.4 nM under setting [3].
As to `Cc1nc2cnc(N3CCN(C(C)(C)CC#N)CC3)c(C#N)c2c(=O)n1CCOc1ccc(Cl)cc1-c1ccnc2c(C(=O)O)csc12` [compound 1343], the IC50 under setting [1] is 40.6 nM.
For `Cc1nc2cc(S(C)(=O)=O)c(Cl)c(C#N)c2c(=O)n1CCOc1ccc(Cl)cc1-c1ccnc2c(C(=O)O)csc12` [compound 277], the IC50 under setting [2] is under 50 nM and the IC50 under setting [3] is 30.7 nM.
Regarding `CCc1cc(-c2cc(Cl)ccc2OCCn2c(=O)[nH]c3cc(Cl)cc(C#N)c3c2=O)c2scc(C(=O)O)c2n1` [compound 1078], the IC50 was 50 to 1000 nM under setting [2] and 347 nM under setting [3].
For the molecule `Cc1nc2cc(C#N)c(Cl)c(C#N)c2c(=O)n1CCOc1ccc(Cl)cc1-c1ccnc2c(C(=O)O)csc12` [compound 239], the IC50 runs as follows: under setting [2], under 50 nM; under setting [3], 28.6 nM.
As to `Cc1nc2ccc(C(N)=O)c(C#N)c2c(=O)n1CCOc1ccc(Cl)cc1-c1ccnc2c(C(=O)O)csc12` [compound 316], the IC50 is under 50 nM under setting [2] and 20.4 nM under setting [3].
Consider `C#Cc1c(C(=O)O)cccc1-c1cc(Cl)ccc1OCCn1c(C)nc2cncc(C#N)c2c1=O` [compound 155], for which the IC50 by setting is: under setting [2], under 50 nM; under setting [3], 45.5 nM.
As for `Cc1cc(-c2cc(Cl)ccc2C#CCn2c(C)nc3cc(C(F)(F)F)c(N4CCN(C)CC4)c(C#N)c3c2=O)c2scc(C(=O)O)c2n1` [compound 1213], the IC50 runs as follows: under setting [2], under 50 nM; under setting [1], 42.7 nM.
Regarding `Cc1nc2cnc(N(C)C3CCN([C@@H]4C[C@H]4C(F)(F)F)CC3)c(C#N)c2c(=O)n1CC#Cc1ccc(Cl)cc1-c1ccnc2c(C(=O)O)csc12` [compound 1727], under setting [1], the IC50 is 3.84 nM.
Consider `Cc1nc2cc(CN(C)C)c(C(F)F)c(C#N)c2c(=O)n1CCOc1ccc(Cl)cc1-c1ccnc2c(C(=O)O)csc12` [compound 515], for which the IC50 under setting [2] was under 50 nM and the IC50 under setting [3] is 46 nM.
As for `Cc1nc2c(C(F)(F)F)ncc(C#N)c2c(=O)n1CCOc1ccc(Cl)cc1-c1cccc(C(=O)O)c1` [compound 38], the IC50 was 50 to 1000 nM under setting [2] and 55.5 nM under setting [3].

Values taken from patent publication US11286268B1, “EIF4E-inhibiting compounds and methods” (EFFECTOR THERAPEUTICS, INC., priority 2019, dated 2022).
